The values below come from ChEMBL document CHEMBL4118119, “Development of novel pyridazinone-based adenosine receptor ligands” (Bioorg Med Chem Lett, 2018).

Molecules are shown by their SMILES.

One assay has as its target T1, Adenosine receptor A1 (Homo sapiens, UniProt P30542).
T1 sequence (P30542 whole entry): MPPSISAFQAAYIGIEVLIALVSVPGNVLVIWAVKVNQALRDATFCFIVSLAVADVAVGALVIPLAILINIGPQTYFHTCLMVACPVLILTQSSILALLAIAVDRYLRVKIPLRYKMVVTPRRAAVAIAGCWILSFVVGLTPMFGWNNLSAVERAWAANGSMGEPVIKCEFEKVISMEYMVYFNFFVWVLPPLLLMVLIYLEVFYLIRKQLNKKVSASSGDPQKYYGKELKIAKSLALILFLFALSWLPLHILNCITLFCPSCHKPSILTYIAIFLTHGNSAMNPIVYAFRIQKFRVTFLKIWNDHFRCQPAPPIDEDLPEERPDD
Description: Displacement of [3H]DPCPX from recombinant human A1 receptor expressed in CHO cell membranes measured after 90 mins by scintillation counting method. A general note: Loss of bound radioactivity is the signal in a displacement assay; it reports binding, not function.

Assay [1] concerns the target T2, Adenosine receptor A2a (Homo sapiens, UniProt P29274). Description: Displacement of [3H]-ZM241385 from recombinant human A2A receptor expressed in CHO cell membranes at 1 uM measured after 60 mins by scintillation counting method relative to control.
The target of assay [2] is T3, Adenosine receptor A3 (Homo sapiens) (UniProt P0DMS8).
T3 sequence (whole entry): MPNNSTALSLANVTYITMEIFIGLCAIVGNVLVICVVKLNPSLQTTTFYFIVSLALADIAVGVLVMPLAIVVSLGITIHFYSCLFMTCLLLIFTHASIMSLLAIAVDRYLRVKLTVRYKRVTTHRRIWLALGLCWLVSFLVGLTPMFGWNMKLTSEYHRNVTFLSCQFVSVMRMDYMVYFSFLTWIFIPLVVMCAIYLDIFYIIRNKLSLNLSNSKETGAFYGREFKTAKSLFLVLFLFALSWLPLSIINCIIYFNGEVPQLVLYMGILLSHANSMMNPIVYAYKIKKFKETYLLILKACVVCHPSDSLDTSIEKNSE
The experiment in a line: Displacement of [125I]-ABMECA from recombinant human A3 receptor expressed in CHO cell membranes at 1 uM measured after 120 mins by scintillation counting method relative to control.

Assay [3] concerns the target T4, Adenosine receptor A2b (Homo sapiens) (UniProt P29275).
T4 sequence (whole entry): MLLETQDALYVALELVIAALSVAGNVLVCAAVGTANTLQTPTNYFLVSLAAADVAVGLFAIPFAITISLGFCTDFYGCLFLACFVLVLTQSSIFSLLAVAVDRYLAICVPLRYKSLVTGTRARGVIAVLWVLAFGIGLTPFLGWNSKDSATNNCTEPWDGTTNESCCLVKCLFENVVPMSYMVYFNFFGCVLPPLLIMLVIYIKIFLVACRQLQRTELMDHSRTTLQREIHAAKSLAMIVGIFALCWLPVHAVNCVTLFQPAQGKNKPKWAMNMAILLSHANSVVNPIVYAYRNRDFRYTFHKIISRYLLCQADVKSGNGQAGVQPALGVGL
The experiment in a line: Antagonist activity at recombinant human A2B receptor expressed in CHO cells assessed as inhibition of NECA-stimulated cAMP production at 0.001 to 1 uM by Alpha screen assay relative to control. Type of assay: functional, cell-based.

Assay [4] deals with T5, Adenosine receptor A1 (Homo sapiens) (UniProt P30542).
T5 sequence (whole entry): T1 sequence (P30542 whole entry)
The experiment in a line: Displacement of [3H]DPCPX from recombinant human A1 receptor expressed in CHO cell membranes at 1 uM measured after 90 mins by scintillation counting method relative to control.

Assay [5] has as its target T2, Adenosine receptor A2a. Description: Displacement of [3H]-ZM241385 from recombinant human A2A receptor expressed in CHO cell membranes measured after 60 mins by scintillation counting method.
The target in another assay is T6, Adenosine receptor A3 (Homo sapiens, UniProt P0DMS8).
T6 sequence (P0DMS8 whole entry): T3 sequence (whole entry)
The experiment in a line: Displacement of [125I]-ABMECA from recombinant human A3 receptor expressed in CHO cell membranes measured after 120 mins by scintillation counting method.

T2 sequence (P29274 whole entry): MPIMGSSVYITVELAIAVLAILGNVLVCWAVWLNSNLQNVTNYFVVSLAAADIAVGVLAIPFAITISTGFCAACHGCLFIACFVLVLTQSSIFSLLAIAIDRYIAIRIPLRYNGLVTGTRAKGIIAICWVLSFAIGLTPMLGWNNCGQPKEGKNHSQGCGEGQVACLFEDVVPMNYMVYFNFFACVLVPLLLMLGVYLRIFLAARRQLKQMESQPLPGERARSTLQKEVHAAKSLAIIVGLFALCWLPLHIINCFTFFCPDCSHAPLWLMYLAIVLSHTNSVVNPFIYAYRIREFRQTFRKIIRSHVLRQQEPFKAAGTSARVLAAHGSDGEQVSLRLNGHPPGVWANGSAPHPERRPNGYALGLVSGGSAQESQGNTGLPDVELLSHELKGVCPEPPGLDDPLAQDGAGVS

As for `Nn1nc(-c2ccccn2)c2sccc2c1=O`, at Adenosine receptor A1, the inhibition constant (Ki) is 3720 nM. For the same compound, the inhibition (on Adenosine receptor A2a [1]; in assay [2]; in assay [3]) was 1% throughout.
As for `CCc1nn(CC)c(=O)c2ccsc12`, the inhibition was determined as 3% in assay [4], 7% at Adenosine receptor A2a [1], 14% in assay [2] and 1% in assay [3].
As for `Nn1nc(-c2cccs2)c2sccc2c1=O`, the Ki on Adenosine receptor A1 came to 3540 nM. The inhibition (on Adenosine receptor A2a [1]; in assay [2]; in assay [3]) was 1% each time.
On to `CC(C)n1nc(-c2ccccn2)c2sccc2c1=O`, for which the Ki on Adenosine receptor A1 was determined as 912 nM. The inhibition on Adenosine receptor A2a [1] came to 2%; in assay [2], 2%; in assay [3] it was 1%.
Consider `O=c1[nH]nc(-c2nccs2)c2sccc12`, for which the Ki at Adenosine receptor A1 amounted to 1150 nM; at Adenosine receptor A2a [5], 3390 nM. Further, the inhibition in assay [2] and in assay [3] was 1% each time.
As to `CCn1nc(-c2cccs2)c2sccc2c1=O`, the Ki at Adenosine receptor A1 amounted to 724 nM. Moreover, the inhibition (at Adenosine receptor A2a [1]; in assay [2]; in assay [3]) was 1% each time.
As to `CCc1nn(CC)c(=O)c2cc(-c3ccccc3)sc12`, the inhibition in assay [4] came to 4%; in assay [2] it was 10%; in assay [3], 1%. In addition, at Adenosine receptor A2a [5], the Ki was determined as 3140 nM.
Consider `Nn1nc(-c2nccs2)c2sccc2c1=O`, for which the Ki on Adenosine receptor A1 stood at 2870 nM. Besides, the results for the inhibition (at Adenosine receptor A2a [1]; in assay [2]; in assay [3]) were 15%, 5% and 1%, respectively.
For the compound `CCn1nc(-c2ccccn2)c2sccc2c1=O`, the Ki on Adenosine receptor A1 came out at 782 nM; at Adenosine receptor A2a [5], 2870 nM. Besides, the inhibition in assay [2] and in assay [3] was 1% each time.
As to `CCn1nc(-c2nccs2)c2sccc2c1=O`, the Ki turned out to be 113 nM at Adenosine receptor A1, 2490 nM on Adenosine receptor A2a [5] and 2930 nM at Adenosine receptor A3. Further, the inhibition in assay [3] is 1%.
As to `CCn1nc(-c2ccccc2)c2sccc2c1=O`, the Ki at Adenosine receptor A1 was determined as 2670 nM; on Adenosine receptor A3, 2590 nM. Also, the inhibition worked out at 17% on Adenosine receptor A2a [1] and 1% in assay [3].
On to `Nn1nc(-c2ccccc2)c2sccc2c1=O`, for which the inhibition in assay [4] was determined as 16%; at Adenosine receptor A2a [1], 12%; in assay [2], 1%; in assay [3], 1%.

For orientation: Ki means a dissociation constant, usually derived from enzyme kinetics or from competition with a known ligand. Broadly, the inhibition is the relative decrease from the control value, in per cent.
